Experimental data taken from patent US20210260010A1, “COMPOSITIONS AND METHODS FOR THE REDUCTION OR TREATMENT OF INFLAMMATION” (AXCELLA HEALTH INC., priority 2018, published 2021).

What was measured:
Type in all cases: cell-based
[1] = tested on: MCP1/CCL2; experiment: MCP1/CCL2 secretion by primary human hepatocytes exposed to free fatty acids and TNF-α (ELISA); details: for MCP1 expression relative to Control- Donor 1, Mean: donor 1 hepatocytes; for MCP1 expression relative to Control- Donor 1, Mean / MCP1 expression relative to Control- Donor 2, Mean: FFA + TNF-α, baseline subtracted; for MCP1 expression relative to Control- Donor 2, Mean: donor 2 hepatocytes; for MCP1/CCL2 secretion (baseline subtracted): primary human hepatocytes from two healthy donors, FFA 250 uM + TNF-α 1 ng/ml
Method: Hepatocyte lipotoxicity appears to be a central driver of hepatic cellular injury via oxidative stress and endoplasmic reticulum (ER) stress. The ability of amino acids to influence steatosis (lipid accumulation) and inflammation in hepatocytes was assessed using human primary hepatocytes (Lonza, TRL).
Primary hepatocytes lot nos. from two healthy human donors were seeded on day 0 at density of 6e04 cells in 96 well optical microplates (Thermofisher) in hepatocyte plating media (William's E medium (Gibco) supplemented with 10% heat-inactivated FBS (Atlanta Bio), 2 mM Glutamax (Gibco) and 0.2% Primocin (InVivoGen) and incubated for 6 hours at 37° C., 5% CO2. After 6 hours, cells were washed twice and incubated overnight at 37° C., 5% CO2 with Hepatocytes defined medium (Corning) supplemented with 2 mM Glutamax (Gibco) and 1× Penicillin/Streptomycin. On day 1, cells were washed twice and incubated for 24 h in the hepatocyte culture media in the same conditions described above.
On day 2, cells were washed twice with DPBS 1× (Gibco) and maintained in amino acid-free WEM (US Biologicals) containing a defined custom amino acid concentration based on the mean physiological concentrations in blood. The values are published in the Human Metabolome Database (Wishart D S, Tzur D, Knox C, et al., HMDB: the Human Metabolome Database. Nucleic Acids Res. January 2007; 35(Database issue):D521-6. 17202168; which is hereby incorporated by reference in its entirety). This custom media is supplemented with 11 mM Glucose, 0.272 mM Sodium Pyruvate, and a dose curve of defined amino acid compositions (i.e., vehicle, LIVRQ+N-acetylcysteine, LIVRQ, RQ+N-acetylcysteine, N-acetylcysteine alone, LIV, or individually with L-Leucine, L-Isoleucine, L-Valine, L-Arginine, L-Glutamine, and L-Cysteine) at various ranges of concentrations. Cells were maintained in this defined media for 24 hours at 37° C., 5% CO2.
After pre-treatment, cells were exposed to free fatty acids (FFA) at 250 uM with a ratio of 2:1 (Oleate:Palmitate) supplemented with TNF-α (Thermofisher) at 1 ng/ml or vehicle. Cells were incubated with the FFAs mixture and the different amino acids combinations for 24 hours at 37° C., 5% CO2. After 24 hours incubation, media was removed for cytokine analysis and replaced by fresh media containing the same stimulus conditions and amino acid concentrations. Cells were incubated for an additional 48 hours for a total of 72 hours of FFA and TNFα stimulation.
Human CCL2 (MCP-1) was measured by ELISA (Human […] DuoSet ELISA, R&D Systems) at ⅕ or 1/10 dilution in 1× Reagent Diluent (Reagent Ancillary Kit 2, R&D Systems). Data were normalized to the specific per well cell density determined by nuclei count stained by Hoechst 3342 (Life technologies) in the fluorescence microscopy described below.

[2] = tested on: MCP-1; experiment: MCP-1 chemokine secretion by TNFα-stimulated primary human hepatic stellate cells (ELISA); details: for MCP-1 chemokine secretion, per-cell normalized, fold change from plasma amino acid background: primary human hepatic stellate cells, two donors, TNFα 3 ng/mL, 12 hours
Method: (§1) Primary human hepatic stellate cells were obtained from Samsara Sciences and grown in Complete HSC Medium to […] confluence in T75 or T150 flasks below passage 10 were seeded into 96-well plates and incubated for 6 hours at 37° C., 5% CO2 in a humidified incubator. After 6 hours, plates were removed from the incubator washed with DPBS and pretreated (±single amino acid dropout, ±supplemental amino acid dose; see experiment for medium composition) overnight, ˜14-15 hours. After overnight pretreatment, the medium was removed from the cells, and the same pretreatment medium, now supplemented with 3 ng/mL TNFα was applied. Plates were incubated for 12 hours at 37° C., 5% CO2. After 12 hour stimulus with TNFα, supernatant was removed and frozen at −80° C. in two separate aliquots. Plates were washed and incubated with CCK-8 viability reagent (Dojindo) for 1 hour. Viability was measured on the Synergy plate reader. Immediately, the medium was removed and the plates were fixed for immunofluorescence staining.
(§2) Human CCL2/MCP1 and Human IL-6 were measured by ELISA (Human […] DuoSet ELISA, R&D Systems; Human IL-6 DuoSet ELISA, R&D Systems) at ⅕ and 1/20 dilution in 1× Reagent Diluent (Reagent Ancillary Kit 2, R&D Systems). Data were normalized to the specific per well cell density determined by Hoechst stained nuclei count.
Tables 35-38 show per-cell normalized MCP-1 chemokine secretion in primary human hepatic stellate cells from two donors as a fold change from the plasma amino acid background. Statistical significance calculated by one-way ANOVA with Dunnett's multiple comparison test within each treatment group.

[3] = tested on: IL-6; experiment: IL-6 cytokine secretion by TNFα-stimulated primary human hepatic stellate cells (ELISA); details: for IL-6 cytokine secretion, per-cell normalized, fold change from plasma amino acid background: primary human hepatic stellate cells, two donors, TNFα 3 ng/mL, 12 hours
Method: as §1, §2
Tables 39-42 show per-cell normalized IL-6 cytokine secretion in primary human hepatic stellate cells from two donors as a fold change from the plasma amino acid background. Statistical significance calculated by one-way ANOVA with Dunnett's multiple comparison test within each treatment group.

[4] = Conc. 109 μM (baseline comparator)
[5] = Conc. 749 μM (baseline comparator)
[6] = Conc. 66 μM (baseline comparator)

SMILES: N=C(N)NCCC[C@H](N)C(=O)O [Arginine, L-Arginine]
- MCP1 expression relative to Control- Donor 1, Mean [1, 4]: 2.37E−15
- MCP1 expression relative to Control- Donor 2, Mean [1, 4]: −4.7E−15
- MCP1 expression relative to Control- Donor 1, Mean ([1]; Conc. 1088 μM): 5.114
- MCP1 expression relative to Control- Donor 2, Mean ([1]; Conc. 1088 μM): 24.95
- MCP1 expression relative to Control- Donor 1, Mean ([1]; Conc. 2720 μM): 6.527
- MCP1 expression relative to Control- Donor 2, Mean ([1]; Conc. 2720 μM): 24.06
- MCP1 expression relative to Control- Donor 1, Mean ([1]; Conc. 5440 μM): 10.9386
- MCP1 expression relative to Control- Donor 2, Mean ([1]; Conc. 5440 μM): 8.494
- MCP1/CCL2 secretion (baseline subtracted) [1]: increased
- Fold Change MCP1 Secretion Normalized Per Cell ([2]; donor 3, Conc. 109 μM (plasma background, reference)): 1.0000
- Fold Change MCP1 Secretion Normalized Per Cell ([2]; donor 3, Conc. 1088 μM): 0.9435
- Fold Change MCP1 Secretion Normalized Per Cell ([2]; donor 3, Conc. 2720 μM): 0.8821
- Fold Change MCP1 Secretion Normalized Per Cell ([2]; donor 3, Conc. 5440 μM): 0.7840
- Fold Change MCP1 Secretion Normalized Per Cell ([2]; donor 4, Conc. 109 μM (plasma background, reference)): 1.0000
- Fold Change MCP1 Secretion Normalized Per Cell ([2]; donor 4, Conc. 1088 μM): 1.0453
- Fold Change MCP1 Secretion Normalized Per Cell ([2]; donor 4, Conc. 2720 μM): 1.0446
- Fold Change MCP1 Secretion Normalized Per Cell ([2]; donor 4, Conc. 5440 μM): 0.9456
- MCP-1 chemokine secretion, per-cell normalized, fold change from plasma amino acid background [2]: no significant impact
- Fold Change IL-6 Secretion Normalized Per Cell ([3]; donor 1, Conc. 109 μM (plasma background, reference)): 1.0000
- Fold Change IL-6 Secretion Normalized Per Cell ([3]; donor 1, Conc. 1088 μM): 0.9828
- Fold Change IL-6 Secretion Normalized Per Cell ([3]; donor 1, Conc. 2720 μM): 1.0231
- Fold Change IL-6 Secretion Normalized Per Cell ([3]; donor 1, Conc. 5440 μM): 0.7776
- Fold Change IL-6 Secretion Normalized Per Cell ([3]; donor 2, Conc. 109 μM (plasma background, reference)): 1.0000
- Fold Change IL-6 Secretion Normalized Per Cell ([3]; donor 2, Conc. 1088 μM): 0.9924
- Fold Change IL-6 Secretion Normalized Per Cell ([3]; donor 2, Conc. 2720 μM): 0.9401
- Fold Change IL-6 Secretion Normalized Per Cell ([3]; donor 2, Conc. 5440 μM): 0.8895
- IL-6 cytokine secretion, per-cell normalized, fold change from plasma amino acid background [3]: no significant effect

SMILES: NC(=O)CC[C@H](N)C(=O)O [Glutamine, L-Glutamine]
- MCP1 expression relative to Control- Donor 1, Mean [1, 5]: 0
- MCP1 expression relative to Control- Donor 2, Mean [1, 5]: 2.84E−14
- MCP1 expression relative to Control- Donor 1, Mean ([1]; Conc. 3747 μM): −0.8981
- MCP1 expression relative to Control- Donor 2, Mean ([1]; Conc. 3747 μM): −45.0574
- MCP1 expression relative to Control- Donor 1, Mean ([1]; Conc. 11242 μM): −9.001
- MCP1 expression relative to Control- Donor 2, Mean ([1]; Conc. 11242 μM): −90.6558
- MCP1 expression relative to Control- Donor 1, Mean ([1]; Conc. 22484 μM): −21.8392
- MCP1 expression relative to Control- Donor 2, Mean ([1]; Conc. 22484 μM): −138.873
- MCP1/CCL2 secretion (baseline subtracted) [1]: significantly decrease
- Fold Change MCP1 Secretion Normalized Per Cell ([2]; donor 3, Conc. 562 μM (plasma background, reference)): 1.0000
- Fold Change MCP1 Secretion Normalized Per Cell ([2]; donor 3, Conc. 749 μM): 0.7048
- Fold Change MCP1 Secretion Normalized Per Cell ([2]; donor 3, Conc. 3747 μM): 0.6036
- Fold Change MCP1 Secretion Normalized Per Cell ([2]; donor 3, Conc. 11242 μM): 0.6106
- Fold Change MCP1 Secretion Normalized Per Cell ([2]; donor 3, Conc. 22484 μM): 0.6212
- Fold Change MCP1 Secretion Normalized Per Cell ([2]; donor 4, Conc. 562 μM (plasma background, reference)): 1.0000
- MCP-1 chemokine secretion, per-cell normalized, fold change from plasma amino acid background [2]: reduced MCP1 secretion in both donors but was only statistically significant in one of two donors
- Fold Change IL-6 Secretion Normalized Per Cell ([3]; donor 1, Conc. 562 μM (plasma background, reference)): 1.0000
- Fold Change IL-6 Secretion Normalized Per Cell ([3]; donor 2, Conc. 562 μM (plasma background, reference)): 1.0000
- Fold Change IL-6 Secretion Normalized Per Cell ([3]; donor 2, Conc. 3747 μM): 0.7100
- IL-6 cytokine secretion, per-cell normalized, fold change from plasma amino acid background [3]: significantly reduced

SMILES: CC[C@H](C)[C@H](N)C(=O)O [Isoleucine, L-Isoleucine]
- MCP1 expression relative to Control- Donor 1, Mean [1, 6]: −1.2E−15
- MCP1 expression relative to Control- Donor 2, Mean [1, 6]: 0
- MCP1 expression relative to Control- Donor 1, Mean ([1]; Conc. 1328 μM): −0.3073
- MCP1 expression relative to Control- Donor 2, Mean ([1]; Conc. 1328 μM): 26.62
- MCP1 expression relative to Control- Donor 1, Mean ([1]; Conc. 3320 μM): −2.417
- MCP1 expression relative to Control- Donor 2, Mean ([1]; Conc. 3320 μM): −5.645
- MCP1 expression relative to Control- Donor 1, Mean ([1]; Conc. 6639 μM): −0.205
- MCP1 expression relative to Control- Donor 2, Mean ([1]; Conc. 6639 μM): 18.62
- MCP1/CCL2 secretion (baseline subtracted) [1]: did not have an effect
- Fold Change MCP1 Secretion Normalized Per Cell ([2]; donor 3, Conc. 66 μM (plasma background, reference)): 1.0000
- Fold Change MCP1 Secretion Normalized Per Cell ([2]; donor 3, Conc. 1328 μM): 1.5550
- Fold Change MCP1 Secretion Normalized Per Cell ([2]; donor 3, Conc. 3320 μM): 1.2169
- Fold Change MCP1 Secretion Normalized Per Cell ([2]; donor 3, Conc. 6639 μM): 1.2084
- Fold Change MCP1 Secretion Normalized Per Cell ([2]; donor 4, Conc. 66 μM (plasma background, reference)): 1.0000
- Fold Change IL-6 Secretion Normalized Per Cell ([3]; donor 1, Conc. 66 μM (plasma background, reference)): 1.0000
- Fold Change IL-6 Secretion Normalized Per Cell ([3]; donor 2, Conc. 66 μM (plasma background, reference)): 1.0000
- IL-6 cytokine secretion, per-cell normalized, fold change from plasma amino acid background [3]: no significant effect
